In US20060275769A1 (priority 2003, published 2006):
Entries after “also recorded” stand apart in the source; their conditions may differ.

Experiments:
KSHV-infected DMVEC [1] = assay: Inhibition of KSHV-induced spindle cell formation by PMO antisense gene silencing; type: cell-based, human; details: for effect on KSHV-induced spindle cell formation / phenotypic inhibition (in words): PMO antisense silencing; for Extent of PMO-induced Inhibition of Spindle Cell Formation / Phenotype Inhibition (inhibition of spindle cell formation): gene-specific PMO antisense
Description: Antisense Gene Silencing using PMOs. […] Silencing of such genes precluded progression into the transformed phenotype when silencing occurred prior to transformation, or induced reversion to the normal state when silencing occurred after induction of the transformed state (see TABLE 2 below).
(§1) Introduction of antisense PMO into KSHV-infected DMVEC. Antisense PMO molecules, for delivery purposes, are typically converted to a paired duplex together with a partially complementary cDNA oligonucleotide in the weakly basic delivery reagent ethoxylated polyethylenimine (EPEI) (Summerton, supra). The anionic complex binds to the cell surface, is taken up by endocytosis and eventually released into the cytosol. A protocol for optimum uptake of antisense PMO in immortalized DMVEC was developed using a modification of the EPEI method. Briefly, uninfected, immortalized DMVECs were incubated for 3 hours at 37° C. with 0.6 nmol/well FITC-PMO complexed with EPEI according to the manufacturer's instructions (Genetools, LLC, One Summerton Way, Philomath, OR 97370) (e.g., 1.25 n Mol oligomer with 2.5 μl EPEI reagent per 35 mm dish, allowing for sufficient antisense uptake without non-specific EPEI-induced toxicity). The PMOs were labeled with FITC to allow for monitoring of loading efficiency by fluorescence microscopy.
(§2) Specifically, DMVEC were infected with KSHV, plated in 35 mm dishes and allowed to grow to about 90% confluence. For treatment, KSHV-infected cells were treated with the anti-c-Kit PMO-antisense oligomer-EPEI delivery reagent complex and incubated for 3 hours at 37° C. in serum-free medium to allow for oligomer uptake. A titration experiment testing a range of different oligomer/EPEI volumes was used to determine that loading 1.25 nmol oligomer with 2.5 μl EPEI reagent per 35 mm dish allowed efficient antisense uptake without non-specific EPEI-induced toxicity. Control (mock-treated) DMVEC cultures were loaded with EPEI reagent and sterile water or sterile water alone. Upon removal of the oligomer-EPEI solution, cell monolayers were rinsed in serum-free medium fed with complete medium and examined daily for one week by phase microscopy for evidence of phenotypic change.

KSHV-infected DMVEC [2] = assay: XTT proliferation assay after PMO loading; type: cell-based, human; details: PMO antisense silencing
Protocol: Proliferation assays, and loading of cells with PMOs. Proliferation of KSHV-infected DMVEC was quantified using an XTT (2,3-bis-(2-methoxy-4-nitro-5-sulfophenyl)-2H-tetrazolium-5-carboxanilide, disodium salt)-based assay. KSHV-infected cells were added to Primaria 96-well trays (Becton Dickinson) at 1×10^4 or 5×10^4 cells/well. XTT (Roche, Molecular Biochemicals, Indianapolis, Ind.) was added 48 hours later according to the manufacturer's instructions. Absorbance was read after 4 to 6 hours on a microplate reader.
Briefly, cells were plated in 96-well trays at a density approaching confluence (5×10^4 cells per well) in 100 μl of complete medium. PMOs were loaded the following day in a total of 100 μl (0.5 μl PMO, 0.5 μl EPEI, 49 μl H2O and 50 μl serum free medium) with reagent mixing as described by the manufacturer (GeneTools). Controls included a FITC PMO control oligonucleotide, EPEI only or H2O only. Each variable was performed in quadruplicate. Fresh complete medium was replaced 4 hours after loading. Cells were cultured for 4 days to allow for multi-layered cell growth post-confluence in the absence of any growth inhibition. XTT was added on day 4 of culture and the a bsorbance read 4 hrs later on a microplate reader. Cell proliferation (growth) values are given as percentage inhibition values, relative to cells without PMO, which are adjusted to 100%.

KSHV-infected DMVEC [3] = assay: Focus formation / contact inhibition by phase microscopy after c-Kit PMO loading; type: cell-based, human; details: 1.25 nmol PMO and 2.5 μl EPEI per 35 mm dish, one week post-loading
Protocol: Proof of principal for target validation; silencing of c-Kit gene expression.
as §2

immortalized DMVEC = assay: Uptake and persistence of FITC-labeled PMO by fluorescence microscopy; type: cell-based, human; details: FITC-labeled PMO with EPEI, at 3 hours
Description: as §1
Cellular distribution of introduced FITC-labeled POM antisense molecules. […] Specifically, the c Kit antisense PMO molecules were initially concentrated in intracellular vesicles (endosomes) at 3 hours in about 70% of the cells, and distributed within the cytoplasm at 66 hours.

KSHV-infected DMVEC [4] = assay: Inhibition of KSHV-induced spindle cell formation by PMO antisense gene silencing; type: cell-based, human
KSHV-infected DMVEC [5] = details: cited from earlier work
KSHV-infected DMVEC [6] = details: cited from earlier work; remark: listed apart in the source

Compound | effect on KSHV-induced spindle cell formation / phenotypic inhibition (in words) (KSHV-infected DMVEC [1]) | Extent of PMO-induced Inhibition of Spindle Cell Formation (KSHV-infected DMVEC [1]) | Phenotype Inhibition (inhibition of spindle cell formation) (KSHV-infected DMVEC [1]) | inhibition of KSHV-induced cellular proliferation (in words) (KSHV-infected DMVEC [2]) | further results
CGCCTCTCATCGCGGTAGCTGCG (all phosphorodiamidate morpholino (PMO); further chemistry not fully specified) [KIT] | fully reversed spindle cell formation | full | Full | substantial inhibition of KSHV-induced cellular proliferation | foci formation / contact-inhibited growth (KSHV-infected DMVEC [3]; listed as c-Kit antisense PMO oligomer): did not develop foci; also recorded: did not progress to spindle cell and foci formation; foci formation / contact-inhibited growth (KSHV-infected DMVEC [3]; listed as c-Kit-specific antisense PMO oligonucleotides): did not develop foci; cells with PMO concentrated in intracellular vesicles (uptake) (immortalized DMVEC): about 70%
AGCATGTCACGCACAGTGGCCTCAT (all phosphorodiamidate morpholino (PMO)) [ANGPTL2] | intermediate inhibitory effects | intermediate | Intermediate |  | 
TGAATAAGCAACAATGTAGCTTCAT (all phosphorodiamidate morpholino (PMO)) [MFAP3] | little or no affect on KSHV-induced spindle cell formation | none | None | relatively little or no significant inhibition | effect on KSHV-induced spindle cell formation / phenotypic inhibition (in words) (KSHV-infected DMVEC [4]; listed as MFAP-specific PMO): no phenotypic inhibition
GGAGCACGGTCCAGGCGAAGCGCAT (all phosphorodiamidate morpholino (PMO)) [LOX] | fully reversed spindle cell formation | full | Full |  | 
GGGTCTCCTCGGATCAGGCGCG (all phosphorodiamidate morpholino (PMO)) [INSR] | intermediate inhibitory effects | intermediate | Intermediate | substantial inhibition of KSHV-induced cellular proliferation | 
Cc1ccc(NC(=O)c2ccc(CN3CCN(C)CC3)cc2)cc1Nc1nccc(-c2cccnc2)n1 [STI 571] |  |  |  |  | nonspecific cytotoxicity (cell viability controls) (KSHV-infected DMVEC [5]): not due to nonspecific cytotoxicity; proliferative response of KSHV-infected DMVEC to exogenous SCF (KSHV-infected DMVEC [5]; exogenous SCF): inhibited; phenotype after removal of the compound (KSHV-infected DMVEC [6]; removal of STI 571, even after exposure to a 10 μM dose): regeneration of the transformed phenotype; focus formation (KSHV-infected DMVEC [6]; treatment to inhibit endogenous c-Kit tyrosine kinase activity): focus formation is inhibited
AGCTTCATGTTGGAGGTGTTCG (all phosphorodiamidate morpholino (PMO)) [IFACTOR] | little or no affect on KSHV-induced spindle cell formation | none | None | relatively little or no significant inhibition | 
GAAGAGATGCAGATCCATCGTTCTG (all phosphorodiamidate morpholino (PMO)) [RDC-1] | fully reversed spindle cell formation | full | Full | substantial inhibition of KSHV-induced cellular proliferation | effect on KSHV-induced spindle cell formation / phenotypic inhibition (in words) (KSHV-infected DMVEC [4]; listed as RDC-1-specific PMO): full phenotypic inhibition
GTCAGTTTACTCATGTCATCTATTG (all phosphorodiamidate morpholino (PMO)) [KIAA0367] | intermediate inhibitory effects | intermediate | Intermediate | substantial inhibition of KSHV-induced cellular proliferation | effect on KSHV-induced spindle cell formation / phenotypic inhibition (in words) (KSHV-infected DMVEC [4]; listed as KIAA0367-specific PMO): intermediate phenotypic inhibition
GGCTCCATCTTGGGCTCTGGGCTCC [FLJ14103] | fully reversed spindle cell formation | full |  |  | 
GGCAGCCCACTCTCTCGGCAGCATG (all phosphorodiamidate morpholino (PMO)) [IGFBP2] | fully reversed spindle cell formation | full | Full | substantial inhibition of KSHV-induced cellular proliferation | 
Osteopontin |  |  | None | relatively little or no significant inhibition | 
GCCGAGGACATTGGGGAGGGAGGCG (all phosphorodiamidate morpholino (PMO)) [LMO2] | little or no affect on KSHV-induced spindle cell formation | none |  |  | 
TTAACTCCCATCCTACGTTTAGTCA (all phosphorodiamidate morpholino (PMO)) [Neuritin] | fully reversed spindle cell formation | full | Full | substantial inhibition of KSHV-induced cellular proliferation | 
AGCTCGTGCTCTGCACACTCTGCAT (all phosphorodiamidate morpholino (PMO)) [NOV] | fully reversed spindle cell formation | full | Full |  | 
